# Measurements reported in the supplement of paper PMC10307832.
# Assays:
# Experiment in all cases: relative viability (nuclei count vs DMSO), 5 days (fraction); higher = more cells survive
# NCI-H2085 = tested on: NCI-H2085
# Summary of the method: (§1)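 Dosing by pin tool came one day after lung cancer cell lines were seeded in 1536-well plates, using either one drug or a fixed anchor-drug dose plus five library-drug doses (not always all listed) in √10 steps. After 5 days, nuclei were counted on 4× images. Relative viability is treated-well nuclei count divided by vehicle-well nuclei count, and values are medians of duplicate plates.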
# LCLC-103H = tested on: LCLC-103H
# Summary of the method: as §1
# NCI-H838 = tested on: NCI-H838
# Summary of the method: as §1
# NCI-H1395 = tested on: NCI-H1395
# Summary of the method: as §1
# NCI-H2405 = tested on: NCI-H2405
# Summary of the method: as §1
# LU99A = tested on: LU99A
# Summary of the method: as §1
# EPLC-272H = tested on: EPLC-272H
# Summary of the method: as §1
# NCI-H650 = tested on: NCI-H650
# Summary of the method: as §1
# NCI-H2023 = tested on: NCI-H2023
# Summary of the method: as §1
# NCI-H1793 = tested on: NCI-H1793
# Summary of the method: as §1
# NCI-H1563 = tested on: NCI-H1563
# Summary of the method: as §1
smiles,measurement,setting,value
CC(=O)O[C@@]12CO[C@@H]1C[C@H](O)[C@@]1(C)C(=O)[C@H](O)C3=C(C)[C@@H](OC(=O)[C@H](O)[C@@H](NC(=O)OC(C)(C)C)c4ccccc4)C[C@@](O)([C@@H](OC(=O)c4ccccc4)[C@H]21)C3(C)C [Docetaxel] + Cc1nc(NC(=O)N2CCC[C@H]2C(N)=O)sc1-c1ccnc(C(C)(C)C(F)(F)F)c1 [Alpelisib] (partner 2 µM),relative viability,NCI-H2085; first compound 0.0002 µM,0.93
same,relative viability,NCI-H2085; first compound 0.000632 µM,0.905
same,relative viability,NCI-H2085; first compound 0.002 µM,0.697
same,relative viability,NCI-H2085; first compound 0.006325 µM,0.609
same,relative viability,NCI-H2085; first compound 0.02 µM,0.378
same,relative viability,LCLC-103H; first compound 0.0002 µM,0.966
same,relative viability,LCLC-103H; first compound 0.000632 µM,0.984
same,relative viability,LCLC-103H; first compound 0.002 µM,0.963
same,relative viability,LCLC-103H; first compound 0.006325 µM,0.563
same,relative viability,LCLC-103H; first compound 0.02 µM,0.452
same,relative viability,NCI-H838; first compound 0.0002 µM,0.978
same,relative viability,NCI-H838; first compound 0.000632 µM,0.974
same,relative viability,NCI-H838; first compound 0.002 µM,0.286
same,relative viability,NCI-H838; first compound 0.006325 µM,0.194
same,relative viability,NCI-H838; first compound 0.02 µM,0.157
same,relative viability,NCI-H1395; first compound 0.0002 µM,1
same,relative viability,NCI-H1395; first compound 0.000632 µM,1.02
same,relative viability,NCI-H1395; first compound 0.002 µM,1.35
same,relative viability,NCI-H1395; first compound 0.006325 µM,0.638
same,relative viability,NCI-H1395; first compound 0.02 µM,0.307
same,relative viability,NCI-H2405; first compound 0.0002 µM,0.894
same,relative viability,NCI-H2405; first compound 0.000632 µM,0.677
same,relative viability,NCI-H2405; first compound 0.002 µM,0.467
same,relative viability,NCI-H2405; first compound 0.006325 µM,0.448
same,relative viability,NCI-H2405; first compound 0.02 µM,0.288
same,relative viability,LU99A; first compound 0.0002 µM,0.499
same,relative viability,LU99A; first compound 0.000632 µM,0.342
same,relative viability,LU99A; first compound 0.002 µM,0.299
same,relative viability,LU99A; first compound 0.006325 µM,0.184
same,relative viability,LU99A; first compound 0.02 µM,0.139
same,relative viability,EPLC-272H; first compound 0.0002 µM,0.928
same,relative viability,EPLC-272H; first compound 0.000632 µM,0.741
same,relative viability,EPLC-272H; first compound 0.002 µM,0.43
same,relative viability,EPLC-272H; first compound 0.006325 µM,0.147
same,relative viability,EPLC-272H; first compound 0.02 µM,0.106
same,relative viability,NCI-H650; first compound 0.0002 µM,1.02
same,relative viability,NCI-H650; first compound 0.000632 µM,0.518
same,relative viability,NCI-H650; first compound 0.002 µM,0.315
same,relative viability,NCI-H650; first compound 0.006325 µM,0.304
same,relative viability,NCI-H650; first compound 0.02 µM,0.212
same,relative viability,NCI-H2023; first compound 0.0002 µM,0.49
same,relative viability,NCI-H2023; first compound 0.000632 µM,0.553
same,relative viability,NCI-H2023; first compound 0.002 µM,0.128
same,relative viability,NCI-H2023; first compound 0.006325 µM,0.137
same,relative viability,NCI-H2023; first compound 0.02 µM,0.0735
same,relative viability,NCI-H1793; first compound 0.0002 µM,0.796
same,relative viability,NCI-H1793; first compound 0.000632 µM,0.642
same,relative viability,NCI-H1793; first compound 0.002 µM,0.41
same,relative viability,NCI-H1793; first compound 0.006325 µM,0.309
same,relative viability,NCI-H1793; first compound 0.02 µM,0.222
same,relative viability,NCI-H1563; first compound 0.0002 µM,0.879
same,relative viability,NCI-H1563; first compound 0.000632 µM,0.926
